Test system: OCI-AML2 cells
Assay: flow cytometry of apoptosis and live-dead cell staining
Type: cell-based, human
Conditions: OCI-AML2, 6 μM, 48 h

## COc1ccc(C2=N[C@@H](c3ccc(Cl)cc3)[C@@H](c3ccc(Cl)cc3)N2C(=O)N2CCNC(=O)C2)c(OC(C)C)c1 [Nutlin-3]
  apoptosis / sensitivity of OCI-AML2: significantly less sensitive

From article PMC5889738 (Biomaterials, 2018)
